Target: T1, recombinant human 5-HT5A receptor (Homo sapiens, UniProt P47898)
T1 construct: expressed in transfected cells; host or cells: HEK-EBNA (Human Embryonic Kidney-EBNA) cells, transient cDNA expression, membranes
Assay: [3H]LSD radioligand binding assay, membranes of HEK-EBNA cells transiently expressing 5-HT5A receptors
Details: [3H]LSD approx. 1 nM, SPA beads, 120 min at room temperature; Ki from IC50 by Cheng-Prussoff equation
Experimental: A [^3H]LSD radioligand binding assay was used to determine the affinity of the compounds for the recombinant human 5-HT5A receptor, in membranes from transiently (cDNA) expressed 5-HT5A receptors in Human Embryonic Kidney-EBNA (HEK-EBNA) cells. Assay buffer consisted of Tris (50 mM) buffer containing 1 mM EGTA, 10 mM MgCl2 (pH 7.4) and 10 μM pargyline. The binding assay was carried out in 96-well-plates in the presence of [^3H]LSD (approximately 1 nM), approximately 2 μg/well of membrane protein, and 0.5 mg of Ysi-poly-1-lysine SPA beads in a final volume of 200 μl of buffer. Non-specific binding was defined using methiothepin 2 μM. Compounds were tested at 10 concentrations. All assays were conducted in duplicate and repeated at least two times. Assay plates were incubated for 120 min at room temperature before centrifugation. Bound ligand was determined using a Packard Topcount scintillation counter. IC50 values were calculated using a non-linear curve fitting program and Ki values calculated using the Cheng-Prussoff equation.

T1 sequence (P47898 whole entry): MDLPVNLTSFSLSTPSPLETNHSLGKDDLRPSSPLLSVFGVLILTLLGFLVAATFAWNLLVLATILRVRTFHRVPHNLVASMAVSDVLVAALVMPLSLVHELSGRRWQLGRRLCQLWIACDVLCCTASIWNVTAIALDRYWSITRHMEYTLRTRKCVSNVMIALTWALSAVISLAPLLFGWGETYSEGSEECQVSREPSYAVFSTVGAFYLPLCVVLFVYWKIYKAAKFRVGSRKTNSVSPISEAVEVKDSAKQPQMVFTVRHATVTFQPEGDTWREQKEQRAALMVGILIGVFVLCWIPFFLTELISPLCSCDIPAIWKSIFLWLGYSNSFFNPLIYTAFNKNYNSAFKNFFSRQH

| Structure (SMILES) | Ki [nM] |
| --- | --- |
| Cc1nc(CNc2cccc3nc(N[C@@H]4CCc5ccccc54)ccc23)c[nH]1 [Example 53] | 7.57 |
| COc1cccc2c1C(Nc1ccc3c(NCc4c[nH]cn4)cccc3n1)CC2 (stereo not shown) [Example 58, N5-(1H-Imidazol-4-ylmethyl)-N2-(7-methoxy-indan-1-yl)-quinoline-2,5-diamine] | 2.36 |
| c1cncc(-c2cccc3nc(N[C@@H]4CCc5ccccc54)ccc23)c1 [Example 66, (R)-Indan-1-yl-(5-pyridin-3-yl-quinolin-2-yl)-amine] | 320 |
| c1ccc2c(c1)CC[C@H]2Nc1ccc2c(Nc3cccc4cc[nH]c34)cccc2n1 [Example 69, N2-(R)-Indan-1-yl-N5-(1H-indol-7-yl)-quinoline-2,5-diamine] | 5.61 |
| c1ccc2c(c1)CC[C@H]2Nc1ccc2c(Nc3cccc4[nH]ccc34)cccc2n1 [Example 71, N2-(R)-Indan-1-yl-N5-(1H-indol-4-yl)-quinoline-2,5-diamine] | 2.94 |
| c1ccc2c(c1)CC[C@H]2Nc1ccc2c(Nc3ccc4[nH]ccc4c3)cccc2n1 [Example 72, N2-(R)-Indan-1-yl-N5-(1H-indol-5-yl)-quinoline-2,5-diamine] | 6 |
| c1ccc2c(c1)CC[C@H]2Nc1ccc2c(-c3cccc4[nH]ccc34)cccc2n1 [Example 74, (R)-Indan-1-yl-[5-(1H-indol-4-yl)-quinolin-2-yl]-amine] | 41.7 |
| Cc1cc(Nc2cccc3nc(N[C@@H]4CCc5ccccc54)ccc23)n(C)n1 [Example 76, N5-(2,5-Dimethyl-2H-pyrazol-3-yl)-N2-(R)-indan-1-yl-quinoline-2,5-diamine] | 33 |
| O=C(Nc1cccc2nc(N[C@@H]3CCc4ccccc43)ccc12)c1ccc(F)cc1 [Example 78, 4-Fluoro-N-[2-((R)-indan-1-ylamino)-quinolin-5-yl]-benzamide] | 91.6 |
| N=C(c1ccc(F)cc1)c1cccc2nc(N[C@@H]3CCc4ccccc43)ccc12 [Example 82, {5-[(4-Fluoro-phenyl)-imino-methyl]-quinolin-2-yl}-(R)-indan-1-yl-amine] | 7.82 |
| O=C(c1ccc(F)cc1)c1cccc2nc(N[C@@H]3CCc4ccccc43)ccc12 [Example 83, (4-Fluoro-phenyl)-[2-((R)-indan-1-ylamino)-quinolin-5-yl]-methanone] | 11.5 |
| O=C(c1ccccc1)c1cccc2nc(N[C@@H]3CCc4ccccc43)ccc12 [Example 85, [2-((R)-Indan-1-ylamino)-quinolin-5-yl]-phenyl-methanone] | 24.1 |
| O=S(=O)(Nc1ccc(F)cc1)Nc1cccc2nc(N[C@@H]3CCc4ccccc43)ccc12 [Example 86, N-{2-[(1R)-2,3-dihydro-1H-inden-1-ylamino]quinolin-5-yl}-N′-(4-fluorophenyl)sulfamide] | 10 |
| Fc1cc(F)cc(CNc2cccc3nc(NC4Cc5ccccc5C4)ccc23)c1 [Example 87, N5-(3,5-Difluoro-benzyl)-N2-indan-2-yl-quinoline-2,5-diamine] | 56.2 |
| c1ccc2c(c1)CC(Nc1ccc3c(NCc4cccc5[nH]ccc45)cccc3n1)C2 [Example 88, N2-Indan-2-yl-N5-(1H-indol-4-ylmethyl)-quinoline-2,5-diamine] | 44.3 |
| COc1ccc(C(=O)c2cccc3nc(N[C@@H]4CCc5ccccc54)ccc23)cc1 [Example 93, [2-((R)-Indan-1-ylamino)-(4-methoxy-phenyl)-quinolin-5-yl]-methanone] | 15.8 |
| O=C(c1cccc(F)c1)c1cccc2nc(N[C@@H]3CCc4ccccc43)ccc12 [Example 94, (3-Fluoro-phenyl)-[2-((R)-indan-1-ylamino)-quinolin-5-yl]-methanone] | 117 |
| COc1ccc(C(=NO)c2cccc3nc(N[C@@H]4CCc5ccccc54)ccc23)cc1 [Example 95, [2-((R)-Indan-1-ylamino)-(4-methoxy-phenyl)-quinolin-5-yl]-methanone oxime] | 4.11 |
| Cc1ccc(C(=O)c2cccc3nc(N[C@@H]4CCc5ccccc54)ccc23)cc1 [Example 97, [2-((R)-Indan-1-ylamino)-(4-methyl-phenyl)-quinolin-5-yl]-methanone] | 37.4 |
| CON=C(c1ccc(C)cc1)c1cccc2nc(N[C@@H]3CCc4ccccc43)ccc12 [Example 98, [2-((R)-Indan-1-ylamino)-(4-methyl-phenyl)-quinolin-5-yl]-methanone O-methyl-oxime] | 49.8 |
| Cc1ccc(C(=NO)c2cccc3nc(N[C@@H]4CCc5ccccc54)ccc23)cc1 [Example 99, [2-((R)-Indan-1-ylamino)-(4-methyl-phenyl)-quinolin-5-yl]-methanone oxime] | 1.8 |
| O=C(c1cc(F)cc(F)c1)c1cccc2nc(N[C@@H]3CCc4ccccc43)ccc12 [Example 100, (3,5-Difluoro-phenyl)-[2-((R)-indan-1-ylamino)-quinolin-5-yl]-methanone] | 264 |

Continued, values first:

| Ki [nM] | Structure (SMILES) |
| --- | --- |
| 22.5 | c1ccc2c(c1)CC[C@H]2Nc1ccc2c(NCc3ncc[nH]3)cccc2n1 [Example 49, N5-(1H-Imidazol-2-ylmethyl)-N2-(R)-indan-1-yl-quinoline-2,5-diamine] |
| 13.6 | c1ccc2c(c1)CC[C@H]2Nc1ccc2c(NCc3cc[nH]n3)cccc2n1 [Example 50, N2-(R)-Indan-1-yl-N5-(1H-pyrazol-3-ylmethyl)-quinoline-2,5-diamine] |
| 25.6 | Cn1cc(CNc2cccc3nc(N[C@@H]4CCc5ccccc54)ccc23)cn1 [Example 55, N2-(R)-Indan-1-yl-N5-(1-methyl-1H-pyrazol-4-ylmethyl)-quinoline-2,5-diamine] |
| 1.65 | c1ccc2c(c1)CC[C@H]2Nc1ccc2c(NCc3cccc4[nH]ccc34)cccc2n1 [Example 56, N2-(R)-Indan-1-yl-N5-(1H-indol-4-ylmethyl)-quinoline-2,5-diamine] |
| 229 | c1ccc(-c2cccc3nc(N[C@@H]4CCc5ccccc54)ccc23)cc1 [Example 63, (R)-Indan-1-yl-(5-phenyl-quinolin-2-yl)-amine] |
| 6.03 | CN(C)CCOc1ccccc1CNc1cccc2nc(N[C@@H]3CCc4ccccc43)ccc12 [Example 64, N5-[2-(2-Dimethylamino-ethoxy)-benzyl]-N2-(R)-indan-1-yl-quinoline-2,5-diamine] |
| 173 | Cc1ccccc1-c1cccc2nc(N[C@@H]3CCc4ccccc43)ccc12 [Example 65, (R)-Indan-1-yl-(5-o-tolyl-quinolin-2-yl)-amine] |
| 4.7 | c1ccc2c(c1)CC[C@H]2Nc1ccc2c(Nc3ccc4cc[nH]c4c3)cccc2n1 [Example 73, N2-(R)-Indan-1-yl-N5-(1H-indol-6-yl)-quinoline-2,5-diamine] |
| 127 | Clc1ccccc1-c1cccc2nc(N[C@@H]3CCc4ccccc43)ccc12 [Example 75, [5-(2-Chloro-phenyl)-quinolin-2-yl]-(R)-indan-1-yl-amine] |
| 6.38 | Fc1ccc(Nc2cccc3nc(N[C@@H]4CCc5ccccc54)ccc23)cc1 [Example 77, N5-(4-Fluoro-phenyl)-N2-(R)-indan-1-yl-quinoline-2,5-diamine] |
| 151 | Fc1ccc(CNCc2cccc3nc(N[C@@H]4CCc5ccccc54)ccc23)cc1 [Example 81, {5-[(4-Fluoro-benzylamino)-methyl]-quinolin-2-yl}-(R)-indan-1-yl-amine] |
| 17.1 | N=C(c1ccccc1)c1cccc2nc(N[C@@H]3CCc4ccccc43)ccc12 [Example 84, [5-(Imino-phenyl-methyl)-quinolin-2-yl]-(R)-indan-1-yl-amine] |

— patent US7923561B2 (Hoffmann-La Roche Inc., priority 2006, dated 2011)
